Tested on: Rattus norvegicus
Conditions: oral
[1] = subchronic, gavage, M, Sprague-Dawley, Deaths + Clinical Observation: Diarrhea SalivationSoft feces Decreased locomotor activity BradypneaIncomplete eyelid opening AnorexiaSoiled …
[2] = short-term, duration: 28 days, gavage, M, Sprague-Dawley, Clinical Observation: Salivation + Urinalysis: Volume increase + Blood Chemistry: Ch E increase, T-CHO increase + Absolute Organ Weight: …
[3] = short-term, duration: 28 days, gavage, F, Sprague-Dawley, Deaths + Clinical Observation: Locomotor activity decrease, Salivation + Body Weight Changes: decrease, Gain decrease + Food Consumption: …
[4] = short-term, duration: 28 days, gavage, M, Sprague-Dawley, Deaths + Clinical Observation: Locomotor activity decrease, Salivation + Body Weight Changes: decrease, Gain decrease + Food Consumption: …
[5] = subchronic, gavage, M, Sprague-Dawley, Clinical Observation: Salivation Clonic convulsion + Body Weight Changes: Body weight gain decrease + Food Consumption: decrease + Water …
[6] = short-term, duration: 28 days, gavage, M/F, Sprague-Dawley, Clinical Observation: Sedation Paleness + Functional Observational Battery: Forelimb grip strength decrease, Motor activity decrease, Motor …
[7] = short-term, duration: 28 days, gavage, M/F, Sprague-Dawley, Deaths + Clinical Observation: Tremor Locomotor activity decrease1000 Ptosis Prone position Lateral position Soiled peritoneal region …
[8] = subchronic, gavage, M, Sprague-Dawley, Clinical Observation: Salivation + Urinalysis: Volume increase, Tubular epithelial cell + Blood Chemistry: PL increasegamma-GTP increase, TP…

`CN(C)c1ccc(C(c2ccccc2)c2ccc(N(C)C)cc2)cc1` [Leucomalachite green] was tested, and the NOEL (subchronic, diet, M, Fischer 344, Body Weight Changes: decrease + Hematology: Hct decrease, Hgb decrease, RBC decrease, Ret increase + Blood Chemistry: Alb decrease, Cho …) was < 27.8 mg/kg-day.
`C[Si](C)(C)O` [Trimethylsilanol] was tested, and the NOAEL (short-term, duration: 28 days, gavage, M/F, Wistar, Clinical Observation: Staggering gait + Body Weight Changes: Body weight gain decrease + Relative Organ Weight: Liver increase + …) was 250 mg/kg-day.
For `CC(C)N1C(=O)C=CC1=O` [1-(Propan-2-yl)-1H-pyrrole-2,5-dione], the NOEL (short-term, duration: 28 days, gavage, M/F, Clinical Observation: Salivation + Organ Weight: Liver increase, Kidney increase + Necropsy: Liver- Enlargement Kidney- Enlargement) was 40 mg/kg-day.
`CCCCCCCCCCCCC(C(=O)OC)S(=O)(=O)[O-].[Na+]` (configuration not stated) [Sodium 1-methoxy-1-oxotetradecane-2-sulfonate] showed an NOEL (subchronic, diet, F, Crj: CD (SD), Blood Chemistry: TG decrease + Absolute Organ Weight: Testis increase + Relative Organ Weight: Testis increase) of 249 mg/kg-day, an NOEL (subchronic, diet, M/F, Crj: CD (SD), Blood Chemistry: TG decrease + Absolute Organ Weight: Testis increase + Relative Organ Weight: Testis increase) of 0.3% and an NOEL (subchronic, diet, M, Crj: CD (SD), Blood Chemistry: TG decrease + Absolute Organ Weight: Testis increase + Relative Organ Weight: Testis increase) of 175 mg/kg-day.
`NCc1ccc(Cl)nc1` [5-(Aminomethyl)-2-chloropyridine] gave an NOEL (short-term, duration: 28 days, gavage, M/F, Clinical Observation: Salivation Locomotor activity decrease, Respiration rate decrease, Ptosis Lacrimation + Body Weight Changes: Weight …) of 8 mg/kg-day.
For `CCc1cc(Cc2cc(CC)cc(C(C)(C)C)c2O)c(O)c(C(C)(C)C)c1` [2,2'-Methylenebis(ethyl-6-tert-butylphenol)], the NOAEL [1] was 30 mg/kg-day and the NOEL [1] was < 30 mg/kg-day.
Work on `O=[N+]([O-])c1ccc(Nc2ccc(Nc3ccccc3)c(S(=O)(=O)[O-])c2)c([N+](=O)[O-])c1.[Na+]` [C.I. Acid Orange 3] yielded an NOEL (subchronic, duration: 13 weeks, gavage, M/F, Fischer 344, Deaths + Body Weight Changes: decrease + Histopathology: Kidney-Nephrosis Kidney-Suppurative inflammation Kidney/Renal papilla - Necrosis …) of 750 mg/kg-day.
Work on `Clc1ccc(Cl)nn1` [Pyridazine, 3,6-dichloro-] yielded an NOEL (short-term, duration: 28 days, gavage, F, Sprague-Dawley, Body Weight Changes: decrease, Weight gain decrease + Food Consumption: decrease + Urinalysis: BIL increase + Blood Chemistry: TP increase, …) of 10 mg/kg-day.
With `N#[N+]c1ccc2c(S(=O)(=O)[O-])cccc2c1[O-].[Na+]` the NOEL (subchronic, gavage, M, Sprague-Dawley, Clinical Observation: Loose stool Mucous stool Soiled perineal region Brownish urine + Body Weight Changes: decrease(trend) + Food …) was < 40 mg/kg-day.
`CO[Si](OC)(OC)c1ccccc1` [Trimethoxyphenylsilane] was tested, and the NOAEL (short-term, duration: 28 days, gavage, M, Han Wistar, Body Weight Changes: decrease + Food Consumption: decrease + Blood Chemistry: BUN increase, BA increase, T-Cho increase + Absolute Organ …) was < 100 mg/kg-day.
For `C=CCOC(=O)c1ccccc1C(=O)OCC=C` [Diallyl phthalate], the NOEL (subchronic, duration: 13 weeks, gavage, M/F, Fischer 344, Deaths + Histopathology: Liver/periportal-Hepatocellular alteration Liver/periportal-Necrosis Liver/periportal-Fibrosis Liver/bile duct- …) was 25 mg/kg-day.
In the case of `NS(=O)(=O)c1cc(C(=O)O)c(NCc2ccco2)cc1Cl` [Furosemide], the NOEL (subchronic, duration: 13 weeks, diet, M/F, Fischer 344, Deaths + Clinical Observation: Diuresis Rough fur + Body Weight Changes: decrease + Food Consumption: decrease + Relative Organ Weight: …) is reported as < 60 mg/kg-day.
`CC(I)C1OCC(CO)O1` (configuration not stated) [Iodinated glycerol] showed an NOEL (subchronic, duration: 13 weeks, gavage, M/F, Fischer 344, Deaths + Body Weight Changes: decrease + Histopathology: Kidney-Tubular cell regeneration Kidney-Calcification) of 250 mg/kg-day.
In the case of `C1=Cc2cccc3cccc1c23` [Acenaphthylene], the NOEL (short-term, duration: 28 days, gavage, M/F, Crl:CD(SD), Deaths + Clinical Observation: Salivation, Rough coat, Wasting, Rearing cunut decrease + Functional Observational Battery: Forearm strength…) is reported as 4 mg/kg-day.
With `Nc1ccccc1C(=O)O` [Anthranilic acid] the NOAEL [2] was 200 mg/kg-day and the NOEL [2] was < 200 mg/kg-day.
For `NS(=O)(=O)c1ccccc1` [Benzenesulfonamide], the LOAEL [3] was 30 mg/kg-day, the LOEL [3] was 30 mg/kg-day and the NOAEL [3] was 6 mg/kg-day. The NOEL [3] was 6 mg/kg-day, the LOAEL [4] was 30 mg/kg-day and the LOEL [4] was 30 mg/kg-day. It also gave an NOAEL [4] of 6 mg/kg-day and an NOEL [4] of 6 mg/kg-day.
With `CC(=O)OC1CCCCC1C(C)(C)C` (configuration not stated) [2-tert-Butylcyclohexyl acetate] the NOAEL [5] was < 50 mg/kg-day and the NOEL [5] was < 50 mg/kg-day.
Work on `CSCCC=O` [3-(Methylthio)propanal] yielded an NOAEL (short-term, duration: 28 days, gavage, M/F, Wistar, Body Weight Changes: Mean body weight decrease, Weight gain decrease + Hematology: RBC decrease, HGB decrease + Blood Chemistry: T-Bil …) of 104 mg/kg-day.
Work on `CC(C)Nc1ccc(NC(C)C)c2c1C(=O)c1ccccc1C2=O` [1,4-Bis(N-isopropylamino)anthraquinone] yielded an NOEL (subchronic, duration: 42 days, gavage, M, CD(SD), Clinical Observation: Dark purple feces Purple urine Purple colored skin + Urinalysis: Lite purple colored urine Purple colored urine + …) of 12 mg/kg-day.
Work on `CC(C)(C1CCC(O)CC1)C1CCC(O)CC1` (configuration not stated) [4,4'-Propane-2,2-diyldicyclohexanol] yielded an NOEL (subchronic, gavage, M, Sprague-Dawley, Hematology: APTT increase, PT increase + Blood Chemistry: TG increase, TP increase, Ca increasegamma-GTP increase, Glu decrease, Cho …) of 20 mg/kg-day.
Compound `CCC(C)(C)OC` [tert-Amyl methyl ether] has an NOAEL (short-term, duration: 29 days, gavage, M/F, Sprague-Dawley, Deaths + Clinical Observation: Rales Anogenital staining + Body Weight Changes: Mean body weight decrease + Food Consumption: decrease + …) of 125 mg/kg-day.
`CCOC(N)=O` [Urethane] showed an LOAEL [6] of 100 mg/kg-day, an LOEL [6] of 100 mg/kg-day and an NOAEL [6] of 20 mg/kg-day. It also gave an NOEL [6] of 20 mg/kg-day, an NOEL (subchronic, drinking water, F, Fischer 344, Deaths + Body Weight Changes: decrease + Water Consumption: decrease + Hematology: WBC decrease, Lympho decrease + Blood Chemistry: BUN …) of 10 mg/kg-day and an NOEL (subchronic, drinking water, F, Fischer 344, Deaths + Clinical Observation: Thinness, abnormal posture, and ruffled fur + Body Weight Changes: decrease + Water Consumption: decrease + …) of 11 mg/kg-day. For the same compound, the NOEL (subchronic, drinking water, M/F, Fischer 344, Deaths + Body Weight Changes: decrease + Water Consumption: decrease + Hematology: WBC decrease, Lympho decrease + Blood Chemistry: BUN …) was < 16.7 mg/kg-day and the NOEL (subchronic, drinking water, M/F, Fischer 344, Deaths + Clinical Observation: Thinness, abnormal posture, and ruffled fur + Body Weight Changes: decrease + Water Consumption: decrease + …) was < 16.7 mg/kg-day.
`CC(=O)C=Cc1ccccc1` [Methyl styryl ketone] was tested, and the NOEL (short-term, duration: 28 days, gavage, M/F, Sprague-Dawley, Functional Observational Battery: Salivation Rearing decrease + Urinalysis: KET increase + Blood Chemistry: T-Cho increase + Absolute Organ …) was 60 mg/kg-day.
For `Cc1cc(O)c(C)c(C)c1O` [2,3,5-Trimethylhydroquinone], the NOEL (subchronic, gavage, M, Sprague-Dawley, Deaths + Clinical Observation: Salivation Locomotor activity decrease, Irregular respiration + Body Weight Changes: decrease + Hematology: …) was < 10 mg/kg-day.
With `N#CC(Cl)(Cl)Cl` [Trichloroacetonitrile] the NOEL (short-term, duration: 28 days, gavage, M/F, Clinical Observation: Salivation Locomotor activity decrease, Bradypnea Ptosis Flushing of auricle Staggering gait + Body Weight Changes: …) was 40 mg/kg-day.
In the case of `CCCCCCC[CH2][Sn]([Cl])([Cl])[CH2]CCCCCCC` [Dichloro(dioctyl)stannane], the NOAEL (subchronic, duration: 90 days, diet, M/F, Wistar, Body Weight Changes: Weight gain decrease + Food Consumption: decrease + Urinalysis: Crystals increase + Hematology: RBC decrease, HGB …) is reported as > 0.96 mg/kg-day.
For `COc1ccc([N+](=O)[O-])cc1N=Nc1c(O)c(C(=O)Nc2cccc([N+](=O)[O-])c2)cc2ccccc12` [C.I. Pigment Red 23], the NOEL (subchronic, duration: 13 weeks, diet, M/F, Fischer 344, Hematology: Hct decrease, Hgb decrease, RBC decrease + Blood Chemistry: LDH increase + Absolute Organ Weight: Liver + Relative Organ Weight…) was < 288 mg/kg-day.
With `COC(=O)C1=C(C#N)NC(C)=C(C(=O)OC(C)C)C1c1cccc([N+](=O)[O-])c1` (configuration not stated) [Nilvadipine] the NOEL (subchronic, gavage, M/F, Sprague-Dawley, Relative Organ Weight: Heart increase Liver increase Ovary increase + Histopathology: Adrenal-Lipoid increase, of zona glomerulosa) was < 9.6 mg/kg-day.
`Cc1cc(O)ccc1Cl` [4-Chloro-3-methylphenol] was tested, and the LOAEL [7] was 250 mg/kg-day, the LOEL [7] was 250 mg/kg-day and the NOAEL [7] was 60 mg/kg-day. It also gave an NOEL [7] of 60 mg/kg-day.
In the case of `ClC(Cl)C(Cl)Cl` [1,1,2,2-Tetrachloroethane], the NOEL (subchronic, diet, F, Fischer 344, Clinical Observation: Thinness Pallor + Body Weight Changes: decrease + Food Consumption: decrease + Hematology: Manual Hct decrease, Plt …) is reported as 10.1 mg/kg-day, the NOEL (subchronic, diet, M/F, Fischer 344, Clinical Observation: Thinness Pallor + Body Weight Changes: decrease + Food Consumption: decrease + Hematology: Manual Hct decrease, Plt …) is reported as < 25.7 mg/kg-day and the NOEL (subchronic, diet, M, Fischer 344, Clinical Observation: Thinness Pallor + Body Weight Changes: decrease + Food Consumption: decrease + Hematology: Manual Hct decrease, Plt …) is reported as 16.6 mg/kg-day.
Work on `OCC#CCO` [2-Butyne-1,4-diol] yielded an NOEL (short-term, duration: 28 days, gavage, M/F, Wistar, Deaths + Body Weight Changes: decrease + Food Consumption: decrease + Hematology: RET increase, WBC increase, Neut increase, Lymph increase…) of 1 mg/kg-day.
`Fc1ccc(Br)cc1F` [4-Bromo-1,2-difluorobenzene] showed an NOEL (short-term, duration: 28 days, gavage, M/F, Deaths + Clinical Observation: Locomotor activity decrease, Salivation Paleness of Auricle + Body Weight Changes: Gain decrease + …) of 20 mg/kg-day.
In the case of `O=C1c2ccccc2C(=O)N1SC(F)(Cl)Cl` [Fluorofolpet], the NOEL (short-term, duration: 28 days, gavage, M/F, Wistar, Deaths + Clinical Observation: Nasal noise Diarrhea + Body Weight Changes: Weight gain decrease + Food Consumption: decrease + Water …) is reported as < 20 mg/kg-day.
Compound `O=C(O)C(Cl)(Cl)Cl` [Trichloroacetic acid] has an NOEL (short-term, duration: 28 days, gavage, M/F, Clinical Observation: Salivation Soft feces Locomotor activity decrease + Urinalysis: Ketone body increase + Hematology: WBC increase, Trend…) of 40 mg/kg-day.
For `BrC1CCC(Br)C(Br)CCC1Br` (configuration not stated) [1,2,5,6-Tetrabromocyclooctane], the NOEL (subchronic, gavage, M, Sprague-Dawley, Food Consumption: decrease, R (recovery day3) + Blood Chemistry: TP increase, Alb increase + Absolute Organ Weight: Liver increase + …) was < 40 mg/kg-day.
In the case of `C(COCC1CO1)OCC1CO1` (configuration not stated) [Ethylene glycol diglycidyl ether], the NOEL (subchronic, duration: 42 days, gavage, M, CD(SD), Clinical Observation: Salivation + Body Weight Changes: decrease + Food Consumption: decrease + Blood Chemistry: TG decrease + …) is reported as 12.5 mg/kg-day.
With `CCCCCCCC1CCCC1=O` (configuration not stated) [2-Heptylcyclopentanone] the NOAEL [8] was 200 mg/kg-day and the NOEL [8] was 50 mg/kg-day.

Reference: EPA's ToxValDB 9.5
